Read-outs that look alike come from different tables or passages of the source.
Key:
[1] = test system: pLai RLuc reporter virus; test: microbe, parasite or virus in culture; assay type: cell-based, HIV; details: Human immunodeficiency virus 1, 72 h
Method in brief: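 Read-out is Renilla luciferase after 72 h at 37 °C in MT-4 cells infected 2 h beforehand with pLai RLuc reporter virus; compounds diluted 1:3.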

[2] = test system: HIV-1 (IIIB); test: Antiviral assay in MT-4 cells (HIV MT-4 antiviral assay); assay type: cell-based; details: Human immunodeficiency virus 1, IIIB, MT4, 120 h, HIV-1 (IIIB) in MT-4 cells, 5 days incubation; read-out: EC50
Method in brief: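 Read-out is CellTiter-Glo chemiluminescence after 5-day culture at 37° C, giving protection of MT-4 cells from HIV-1 IIIB cytopathicity. Compounds tested in 1:3 dilution series in complete RPMI; controls were no drug, mock infection and 5 μM AZT.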

[3] = Cytotoxicity assay in MT-4 cells; assay type: cell-based, human; details: human, uninfected MT-4 cells, 5 days incubation; read-out: CC50
Method in brief: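 For cytotoxicity, uninfected MT-4 cells were incubated with compounds 5 days at 37 °C, with 10 μM puromycin marking base cytotoxicity. Parallel plates used HIV-1 IIIB-infected (1:250 stock dilution) or mock cells with 5 μM AZT and no-drug controls. Read-out: CellTiter-Glo chemiluminescence.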

[4] = read-out: Antiviral Serum Shift RLuc 50% HS, HS/CCM (RPMI media, 10% FBS, 50% HS, 1% P/S), 72-h incubation
[5] = read-out: Antiviral Serum Shift RLuc CCM, CCM (RPMI media, 10% FBS, 1% P/S), 72-h incubation

Row | SMILES | EC50 [1, 4] | EC50 [1, 5] | EC50 [2] | CC50 at 5 days [3]
1 | O=C(NCc1c(F)cc(F)cc1F)c1cn2c(c(O)c1=O)C(=O)N1CCC[C@@H](F)[C@@H]2C1 [Example 15-1, (6R,7S)-6-fluoro-12-hydroxy-1,11-dioxo-N-(2,4,6-trifluorobenzyl)-1,4,5,6,7,11-hexahydro-3H-2,7-methanopyrido[1,2-a][1,4]diazonine-10-carboxamide] | 11.6 nM | 0.32 nM | 1.7 nM | 18300 nM
2 | O=C(NCc1ccc(F)cc1F)c1cn2c(c(O)c1=O)C(=O)N1CCCCC[C@@H]2C1 [Example 5-1, (8R)-N-(2,4-difluorobenzyl)-13-hydroxy-1,12-dioxo-1,3,4,5,6,7,8,12-octahydro-2,8-methanopyrido[1,2-a][1,4]diazecine-11-carboxamide] | 1.24 nM | 0.235 nM | 2 nM | 11100 nM
3 | O=C(NCc1ccc(F)cc1F)c1cn2c(c(O)c1=O)C(=O)N1C[C@@H]2CCC(F)(F)C1 [Example 4-2, (7S)-N-(2,4-difluorobenzyl)-4,4-difluoro-12-hydroxy-1,11-dioxo-1,4,5,6,7,11-hexahydro-3H-2,7-methanopyrido[1,2-a][1,4]diazonine-10-carboxamide] | 4.36 nM | 1.11 nM | 4.8 nM | 10700 nM
4 | O=C(NCc1ccc(F)cc1)c1cn2c(c(O)c1=O)C(=O)N1CCCC[C@H]2C1 [Example 166, (7S)—N-(4-fluorobenzyl)-12-hydroxy-1,11-dioxo-1,4,5,6,7,11-hexahydro-3H-2,7-methanopyrido[1,2-a][1,4]diazonine-10-carboxamide] | 1.62 nM | 0.583 nM | 2.5 nM | 15600 nM
5 | O=C(NCc1c(F)cc(F)cc1F)c1cn2c(c(O)c1=O)C(=O)N1CCCC[C@]2(CF)C1 [Example 163-2, (7R)—N-(2,4,6-trifluorobenzyl)-7-(fluoromethyl)-12-hydroxy-1,11-dioxo-1,4,5,6,7,11-hexahydro-3H-2,7-methanopyrido[1,2-a][1,4]diazonine-10-carboxamide] | 15.3 nM | 0.118 nM | 2.29 nM | 13800 nM
6 | CC(C)N1CCN2CC(C1)n1cc(C(=O)NCc3ccc(F)cc3F)c(=O)c(O)c1C2=O (centres unmarked) [Example 34, N-(2,4-difluorobenzyl)-12-hydroxy-5-isopropyl-1,11-dioxo-1,4,5,6,7,11-hexahydro-3H-2,7-methanopyrido[1,2-a][1,4,7]triazonine-10-carboxamide] | 9.56 nM | 2.06 nM | 3.3 nM | 16400 nM
7 | O=C(NCc1ccc(F)cc1F)c1cn2c(c(O)c1=O)C(=O)N1CCCC3(CC3)[C@H]2C1 [Example 57-1, (7'S)—N-(2,4-difluorobenzyl)-12′-hydroxy-1′,11′-dioxo-1′,4′,5′,11′-tetrahydro-3′H,7′H-spiro[cyclopropane-1,6′-[2,7]methanopyrido[1,2-a][1,4]diazonine]-10′-carboxamide] | 2.36 nM | 0.228 nM | 1.22 nM | 6900 nM
8 | O=C(NCc1ccc(F)c(Cl)c1F)c1cn2c(c(O)c1=O)C(=O)N1CCC=C(F)[C@H]2C1 (single isomer, unassigned) [Example 123-1] | 3.67 nM | 0.316 nM | 2.05 nM | 13700 nM
9 | C[C@H]1CC[C@H]2CN(C1)C(=O)c1c(O)c(=O)c(C(=O)NCc3c(F)cc(F)cc3F)cn12 [Example 137-1, (4S,7S)-12-hydroxy-4-methyl-1,11-dioxo-N-(2,4,6-trifluorobenzyl)-1,4,5,6,7,11-hexahydro-3H-2,7-methanopyrido[1,2-a][1,4]diazonine-10-carboxamide] | 0.707 nM | 0.184 nM | 2.63 nM | 14700 nM
10 | O=C(NCc1c(F)cc(F)cc1F)c1cn2c(c(O)c1=O)C(=O)N1CCOC[C@@H]2C1 [Example 19, (7S)-12-hydroxy-1,11-dioxo-N-(2,4,6-trifluorobenzyl)-1,3,4,6,7,11-hexahydro-2,7-methanopyrido[1,2-d][1,4,7]oxadiazonine-10-carboxamide] | 4.35 nM | 1.21 nM | 4 nM | > 50000 nM
11 | O=C(NCc1c(F)cc(F)cc1F)c1cn2c(c(O)c1=O)C(=O)N1C[C@H](O)CC[C@H]2C1 (single isomer, unassigned) [Example 79-2] | 6.61 nM | 5.33 nM | 17.7 nM | > 50000 nM
12 | O=C(NCc1c(F)cc(F)cc1F)c1cn2c(c(O)c1=O)C(=O)N1CCC[C@@H](Cl)[C@H]2C1 (single isomer, unassigned) [Example 72-2] | 34 nM | 0.267 nM | 4.27 nM | 12100 nM
13 | C[C@]12CC=CCN(C1)C(=O)c1c(O)c(=O)c(C(=O)NCc3c(F)cc(F)cc3F)cn12 [Example 156, (7S)-12-hydroxy-7-methyl-1,11-dioxo-N-(2,4,6-trifluorobenzyl)-1,6,7,11-tetrahydro-3H-2,7-methanopyrido[1,2-a][1,4]diazonine-10-carboxamide] | 41.3 nM | 0.187 nM | 1.75 nM | 13700 nM
14 | O=C(NCc1ccc(F)cc1F)c1cn2c(c(O)c1=O)C(=O)N1Cc3ccc(Cl)cc3C[C@H]2C1 (single isomer, unassigned) [Example 128-1] | 7.61 nM | 0.763 nM | 2.15 nM | > 47200 nM
15 | O=C(NCc1c(F)cc(F)cc1F)c1cn2c(c(O)c1=O)C(=O)N1C[C@H]3CC[C@H](C3)[C@H]2C1 [Example 41-1, (4S,7R,8S)-13-hydroxy-1,12-dioxo-N-(2,4,6-trifluorobenzyl)-1,3,4,5,6,7,8,12-octahydro-2,8:4,7-dimethanopyrido[1,2-a][1,4]diazecine-11-carboxamide] | 6.64 nM | 0.335 nM | 1.6 nM | 15600 nM
16 | O=C(NCc1ccc(F)cc1F)c1cn2c(c(O)c1=O)C(=O)N1CC[C@@H](F)C[C@H]2C1 [Example 56-2, (5R,7S)—N-(2,4-difluorobenzyl)-5-fluoro-12-hydroxy-1,11-dioxo-1,4,5,6,7,11-hexahydro-3H-2,7-methanopyrido[1,2-a][1,4]diazonine-10-carboxamide] | 1.08 nM | 0.401 nM | 1.86 nM | 17800 nM
17 | O=C(NCc1c(F)cc(F)cc1F)c1cn2c(c(O)c1=O)C(=O)N1CCC[C@H](Cl)[C@H]2C1 (single isomer, unassigned) [Example 72-1] | 5.36 nM | 0.281 nM | 1.57 nM | 9990 nM
18 | O=C(NCc1ccc(F)cc1F)c1cn2c(c(O)c1=O)C(=O)N1Cc3ccccc3C[C@H]2C1 [Example 71, (6S)—N-(2,4-difluorobenzyl)-1-hydroxy-2,14-dioxo-2,7,12,14-tetrahydro-6H-6,13-methanobenzo[f]pyrido[1,2-a][1,4]diazonine-3-carboxamide] | 1.66 nM | 0.302 nM | 2.14 nM | 15000 nM
19 | CC[C@]1(O)CCCN2C[C@H]1n1cc(C(=O)NCc3ccc(F)cc3F)c(=O)c(O)c1C2=O [Example 77, (6S,7R)—N-(2,4-difluorobenzyl)-6-ethyl-6,12-dihydroxy-1,11-dioxo-1,4,5,6,7,11-hexahydro-3H-2,7-methanopyrido[1,2-a][1,4]diazonine-10-carboxamide] | 2.13 nM | 0.762 nM | 2.17 nM | 15100 nM
20 | O=C(NCc1c(F)cc(F)cc1F)c1cn2c(c(O)c1=O)C(=O)N1CCCC(F)(F)[C@@H]2C1 (single isomer, unassigned) [Example 10-1] | 1140 nM | 1.02 nM | 3.2 nM | 37100 nM
21 | C[C@H]1CC[C@H](F)[C@H]2CN1C(=O)c1c(O)c(=O)c(C(=O)NCc3c(F)cc(F)cc3F)cn12 [Example 157, (3S,6S,7R)-6-fluoro-12-hydroxy-3-methyl-1,11-dioxo-N-(2,4,6-trifluorobenzyl)-1,4,5,6,7,11-hexahydro-3H-2,7-methanopyrido[1,2-a][1,4]diazonine-10-carboxamide] | 5.75 nM | 1.61 nM | 5.36 nM | 23700 nM
22 | O=C(NCc1c(F)cc(F)cc1F)c1cn2c(c(O)c1=O)C(=O)N1CCc3ccc(Cl)cc3[C@H]2C1 [Example 138, (13S)-11-chloro-4-hydroxy-3,5-dioxo-N-(2,4,6-trifluorobenzyl)-3,5,8,13-tetrahydro-7H-6,13-methanobenzo[g]pyrido[1,2-a][1,4]diazonine-2-carboxamide] | 8.7 nM | 0.708 nM | 3.17 nM | 5020 nM
23 | O=C(NCc1ccc(F)cc1F)c1cn2c(c(O)c1=O)C(=O)N1C[C@H]2COc2cc(F)c(F)cc21 [Example 92-2, (6S)—N-(2,4-difluorobenzyl)-10,11-difluoro-1-hydroxy-2,14-dioxo-2,6,7,14-tetrahydro-6,13-methanobenzo[b]pyrido[2,1-f][1,4,7]oxadiazonine-3-carboxamide] | 0.772 nM | 0.309 nM | 2.01 nM | > 39300 nM

Reference: US12227520B2 (priority 2019, dated 2025)
